This note sets out measurements from patent US20240059703A1 (AMGEN INC., priority 2021, published 2024).

The target of one assay is KRAS G12C (Homo sapiens (Human), UniProt P01116, C118A/G12C). Kind of assay: 2 h coupled exchange assay. It is filed as biochemical. As to conditions: Avg 2 h Coupled exchange IC50, 2 h compound pre-incubation. The protocol: The term “2 h coupled exchange assay” or “20 h coupled exchange assay” as used herein refers to the assay described in the Section entitled “BIOLOGICAL EVALUATION.”

For assay [1], the system named is MIA PaCa-2 (human pancreatic carcinoma) cells. The assay is described as follows: Cell Viability Assay (CellTiter-Glo), MIA PaCa-2. As to conditions: Homo sapiens, MIA PaCa-2, 72 h. The format is cell-based. As to the method: Serially-diluted compound or DMSO was added to the cells, and plates were incubated at 37° C., 5% CO2 for 72 h. Cell viability was measured using a CellTiter-Glo® Luminescent Cell Viability Assay kit (Promega) according to the manufacturer's protocol. The luminescence signal of treated samples was normalized to DMSO control, and data were analyzed using a 4-parameter logistic model to calculate IC50 values.

In assay [2] the test system is A549 (human lung carcinoma) cells. The assay is described as follows: Cell Viability Assay (CellTiter-Glo), A549. It is filed as cell-based. As to conditions: Homo sapiens, A549, 72 h. The essentials: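 Luminescent ATP read-out (CellTiter-Glo) after 72 h compound treatment of cells seeded overnight at 1.67E+04 cells/mL in RPMI 1640, 10% FBS; signal relative to DMSO, IC50 by 4-parameter logistic model.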
For orientation: In ATP-based viability assays light output follows the ATP content of the culture.

Sequence of KRAS G12C (P01116 other isoform, or with tags, fused parts or gaps G12C/C118A): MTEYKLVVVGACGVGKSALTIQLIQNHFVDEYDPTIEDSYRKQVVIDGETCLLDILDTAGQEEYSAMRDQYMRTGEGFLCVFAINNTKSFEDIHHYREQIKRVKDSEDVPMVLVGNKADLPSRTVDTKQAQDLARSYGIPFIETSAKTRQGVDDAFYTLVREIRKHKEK

As usually defined, the IC50 is the concentration that inhibits the measured activity by half. Low values mean greater potency in that assay, high ones weaker potency in that assay. As for `C=CC(=O)N1CC2(CCN(c3nc4c(c(-c5ccccc5F)c3C#N)CCN(c3ccncc3C)C4)C2)C1` [Example 21-21, 4-(2-fluorophenyl)-7-(3-methyl-4-pyridinyl)-2-(2-(2-propenoyl)-2,6-diazaspiro[3.4]octan-6-yl)-5,6,7,8-tetrahydro-1,7-naphthyridine-3-carbonitrile], the IC50 at KRAS G12C is 442 nM; in assay [1], above 5000 nM; in assay [2], above 5000 nM.

Consider `C=CC(=O)N1CC2(CCN(c3nc4c(c(-c5cc(O)ccc5Cl)c3C#N)C3CCC4N(C(C)C)C3)C2)C1` (stereo not drawn) [Example 21-26], for which the IC50 at KRAS G12C was 334 nM; in assay [1] it was 337 nM; in assay [2], 18400 nM.

As to `C=CC(=O)N1CC2(CCN(c3nc4c(c(-c5ccc(F)cc5F)c3C#N)CCN(C(C)C)C4)C2)C1` [Example 21-27, 4-(2,4-difluorophenyl)-7-(2-propanyl)-2-(2-(2-propenoyl)-2,6-diazaspiro[3.4]octan-6-yl)-5,6,7,8-tetrahydro-1,7-naphthyridine-3-carbonitrile], the IC50 on KRAS G12C is 918 nM; in assay [1] it was 2990 nM; in assay [2], 16500 nM.

Take `C=CC(=O)N1CC2(CCN(c3nc4c(c(-c5cc(O)ccc5Cl)c3C#N)CCN(C[C@@H]3CCCN3C)C4)C2)C1` [Example 21-28, 4-(2-chloro-5-hydroxyphenyl)-7-(((2S)-1-methyl-2-pyrrolidinyl)methyl)-2-(2-(2-propenoyl)-2,6-diazaspiro[3.4]octan-6-yl)-5,6,7,8-tetrahydro-1,7-naphthyridine-3-carbonitrile]: the values for the IC50 (against KRAS G12C; in assay [1]; in assay [2]) were 473 nM, 314 nM and above 25000 nM, respectively.

`C=CC(=O)N1CC2(CCN(c3nc4c(c(-c5ccccc5F)c3C#N)CCN(CC3CCCN3C)C4)C2)C1` [Example 21-29, 4-(2-fluorophenyl)-7-(((2R)-1-methyl-2-pyrrolidinyl)methyl)-2-(2-(2-propenoyl)-2,6-diazaspiro[3.4]octan-6-yl)-5,6,7,8-tetrahydro-1,7-naphthyridine-3-carbonitrile 4-(2-fluorophenyl)-7-(((2S)-1-methyl-2-pyrrolidinyl)methyl)-2-(2-(2-propenoyl)-2,6-diazaspiro[3.4]octan-6-yl)-5,6,7,8-tetrahydro-1,7-naphthyridine-3-carbonitrile]: the figures for the IC50 (on KRAS G12C; in assay [1]; in assay [2]) were 822 nM, 4410 nM and above 25000 nM, respectively.

Turning to `C=CC(=O)N1CC2(CCN(c3nc4c(c(-c5ccccc5F)c3C#N)CCN(C3CCCN(C)C3)C4)C2)C1` [Example 21-30, 4-(2-fluorophenyl)-7-((3R)-1-methyl-3-piperidinyl)-2-(2-(2-propenoyl)-2,6-diazaspiro[3.4]octan-6-yl)-5,6,7,8-tetrahydro-1,7-naphthyridine-3-carbonitrile 4-(2-fluorophenyl)-7-((3S)-1-methyl-3-piperidinyl)-2-(2-(2-propenoyl)-2,6-diazaspiro[3.4]octan-6-yl)-5,6,7,8-tetrahydro-1,7-naphthyridine-3-carbonitrile], the IC50 turned out to be 211 nM against KRAS G12C, 2090 nM in assay [1] and 15400 nM in assay [2].

Regarding `Cc1ncsc1N1CCc2c(nc(N3CCC4(CN(C(=O)/C=C/CN(C)C)C4)C3)c(C#N)c2-c2ccccc2F)C1` [Example 21-31, 2-(2-((2E)-4-(dimethylamino)-2-butenoyl)-2,6-diazaspiro[3.4]octan-6-yl)-4-(2-fluorophenyl)-7-(4-methyl-1,3-thiazol-5-yl)-5,6,7,8-tetrahydro-1,7-naphthyridine-3-carbonitrile], the IC50 against KRAS G12C was 641 nM; in assay [1], 738 nM; in assay [2] it was above 5000 nM.

On to `C=CC(=O)N1CC2(CCN(c3nc4c(c(-c5ccc(F)cc5F)c3C#N)CCN(C3CCCN(C)C3)C4)C2)C1` [Example 21-32, 4-(2,4-difluorophenyl)-7-((3R)-1-methyl-3-piperidinyl)-2-(2-(2-propenoyl)-2,6-diazaspiro[3.4]octan-6-yl)-5,6,7,8-tetrahydro-1,7-naphthyridine-3-carbonitrile|4-(2,4-difluorophenyl)-7-((3S)-1-methyl-3-piperidinyl)-2-(2-(2-propenoyl)-2,6-diazaspiro[3.4]octan-6-yl)-5,6,7,8-tetrahydro-1,7-naphthyridine-3-carbonitrile], for which the IC50 at KRAS G12C was found to be 355 nM; in assay [1] it was 1450 nM; in assay [2], 8220 nM.

On to `C=CC(=O)N1CC2(CCN(c3nc4c(c(-c5ccccc5F)c3C#N)CCN(C[C@@H]3CCC(=O)N3)C4)C2)C1` [Example 21-33, 4-(2-fluorophenyl)-7-(((2S)-5-oxo-2-pyrrolidinyl)methyl)-2-(2-(2-propenoyl)-2,6-diazaspiro[3.4]octan-6-yl)-5,6,7,8-tetrahydro-1,7-naphthyridine-3-carbonitrile], for which the IC50 against KRAS G12C came to 957 nM; in assay [1], 5520 nM; in assay [2], 16100 nM.

On to `C=CC(=O)N1CC2(CCN(c3nc4c(c(-c5ccccc5F)c3C#N)CCN(C(=O)[C@@H]3CCCN3C)C4)C2)C1` [Example 21-34, 4-(2-fluorophenyl)-7-(1-methyl-L-prolyl)-2-(2-(2-propenoyl)-2,6-diazaspiro[3.4]octan-6-yl)-5,6,7,8-tetrahydro-1,7-naphthyridine-3-carbonitrile], for which the IC50 at KRAS G12C is 911 nM; in assay [1], 6290 nM; in assay [2], above 25000 nM.

Turning to `C=CC(=O)N1CC2(CCN(c3nc4c(c(-c5cc(O)ccc5Cl)c3C#N)CCN(C3CCCN(C)C3)C4)C2)C1` [Example 21-36, 4-(2-chloro-5-hydroxyphenyl)-7-((3R)-1-methyl-3-piperidinyl)-2-(2-(2-propenoyl)-2,6-diazaspiro[3.4]octan-6-yl)-5,6,7,8-tetrahydro-1,7-naphthyridine-3-carbonitrile 4-(2-chloro-5-hydroxyphenyl)-7-((3S)-1-methyl-3-piperidinyl)-2-(2-(2-propenoyl)-2,6-diazaspiro[3.4]octan-6-yl)-5,6,7,8-tetrahydro-1,7-naphthyridine-3-carbonitrile], the results for the IC50 (on KRAS G12C; in assay [1]; in assay [2]) were 167 nM, 174 nM and above 5000 nM, respectively.

Turning to `C=CC(=O)N1CC2(CCN(c3nc4c(c(-c5ccccc5F)c3C#N)CCN(C3CC3)C4)C2)C1` [Example 21-37, 7-cyclopropyl-4-(2-fluorophenyl)-2-(2-(2-propenoyl)-2,6-diazaspiro[3.4]octan-6-yl)-5,6,7,8-tetrahydro-1,7-naphthyridine-3-carbonitrile], the figures for the IC50 (on KRAS G12C; in assay [1]; in assay [2]) were 90 nM, 461 nM and above 5000 nM, respectively.

Turning to `C=CC(=O)N1CC2(CCN(c3nc4c(c(-c5ccccc5F)c3C#N)CCN(C(C)CN(C)C)C4)C2)C1` [Example 21-38, 7-((2R)-1-(dimethylamino)-2-propanyl)-4-(2-fluorophenyl)-2-(2-(2-propenoyl)-2,6-diazaspiro[3.4]octan-6-yl)-5,6,7,8-tetrahydro-1,7-naphthyridine-3-carbonitrile 7-((2S)-1-(dimethylamino)-2-propanyl)-4-(2-fluorophenyl)-2-(2-(2-propenoyl)-2,6-diazaspiro[3.4]octan-6-yl)-5,6,7,8-tetrahydro-1,7-naphthyridine-3-carbonitrile], the IC50 is 178 nM on KRAS G12C, 196 nM in assay [1] and above 5000 nM in assay [2].

Turning to `C=CC(=O)N1CC2(CCN(c3nc4c(c(-c5ccccc5F)c3C#N)CCN(CCCOC)C4)C2)C1` [Example 21-39, 4-(2-fluorophenyl)-7-(3-methoxypropyl)-2-(2-(2-propenoyl)-2,6-diazaspiro[3.4]octan-6-yl)-5,6,7,8-tetrahydro-1,7-naphthyridine-3-carbonitrile], the IC50 was found to be 1120 nM at KRAS G12C, 7180 nM in assay [1] and 17600 nM in assay [2].

Turning to `C=CC(=O)N1CC2(CCN(c3nc4c(c(-c5cc(O)ccc5Cl)n3)CCC(c3scnc3C)C4)C2)C1` [Example 22-4, 1-(6-((7R)-4-(2-chloro-5-hydroxyphenyl)-7-(4-methyl-1,3-thiazol-5-yl)-5,6,7,8-tetrahydro-2-quinazolinyl)-2,6-diazaspiro[3.4]octan-2-yl)-2-propen-1-one| 1-(6-((7S)-4-(2-chloro-5-hydroxyphenyl)-7-(4-methyl-1,3-thiazol-5-yl)-5,6,7,8-tetrahydro-2-quinazolinyl)-2,6-diazaspiro[3.4]octan-2-yl)-2-propen-1-one], the IC50 was 222 nM on KRAS G12C, above 5000 nM in assay [1] and above 5000 nM in assay [2].

Turning to `C=CC(=O)N1CC2(CCN(c3nc4c(c(-c5ncccc5C)c3C#N)CCC(c3scnc3C)=C4)C2)C1` [Example 23-1, 4-(3-Methyl-2-pyridinyl)-7-(4-methyl-1,3-thiazol-5-yl)-2-(2-(2-propenoyl)-2,6-diazaspiro[3.4]octan-6-yl)-5,6-dihydro-3-quinolinecarbonitrile], the IC50 against KRAS G12C is 178 nM; in assay [1], 507 nM; in assay [2], above 5000 nM.
